The supplement of paper PMC8617591

Legend:
[1] = tested on: Mycobacterium tuberculosis Erdman (autoluminescent); assay: AUC25, normalised area under dose response up to IC25 (three-drug combination) (fraction (0-1)); higher = more potent at low dose
Experimental: (§1)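 DiaMOND equipotent three-drug combination dose responses (10 doses, 1.5- or 2-fold spacing, centred on IC90) against autoluminescent M. tuberculosis Erdman in 8 in vitro models. Read-out is OD600, or luminescence for the intracellular and dormancy models, normalised to untreated wells. Hill-fit Einf, AUC25 and GRinf are potency metrics; FIC50 and FIC90 are total Loewe fractional inhibitory concentrations as log2 (negative = synergy).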

[2] = tested on: Mycobacterium tuberculosis Erdman (autoluminescent); assay: GRinf, maximum normalised growth rate inhibition (three-drug combination) (unitless (-1 to 1)); higher = less effect (negative = killing)
Experimental: as §1

[3] = tested on: Mycobacterium tuberculosis Erdman (autoluminescent); assay: total FIC90 (Loewe) at 90% inhibition, three-drug combination (log2); higher = more antagonistic
Experimental: as §1

[4] = tested on: Mycobacterium tuberculosis Erdman (autoluminescent); assay: total FIC50 (Loewe) at 50% inhibition, three-drug combination (log2); higher = more antagonistic
Experimental: as §1

[5] = tested on: Mycobacterium tuberculosis Erdman (autoluminescent); assay: Einf, fitted maximum growth inhibition of three-drug combination (fraction); higher = stronger maximal inhibition
Experimental: as §1

NNC(=O)c1ccncc1 [isoniazid] + CC(=O)NC[C@H]1CN(c2ccc(N3CCOCC3)c(F)c2)C(=O)O1 [linezolid] + NC(=O)c1cnccn1 [pyrazinamide]
Details	AUC25, [1]	Einf, [5]	GRinf, [2]	total FIC50, [4]	total FIC90, [3]
in vitro model: acidic pH 5.7, time point: constant (~7 days, model-specific)	0.11	0.842	-0.287	-1.93	–
in vitro model: acidic pH 5.7, time point: terminal (~4-5 doublings, model-specific)	0.0984	0.983	-0.282	-1.83	-1.21
in vitro model: intracellular J774, time point: constant = terminal	–	0.956	-0.246	–	0.444

Details	AUC25, [1]	Einf, [5]	GRinf, [2]	total FIC50, [4]	total FIC90, [3]
in vitro model: butyrate, time point: constant (~7 days, model-specific)	0.108	0.91	0.0266	-1.9	1.62
in vitro model: butyrate, time point: terminal (~4-5 doublings, model-specific)	0.08	0.955	0.0226	-1.67	-1.24
in vitro model: cholesterol 0.05 mM, time point: constant (~7 days, model-specific)	0.144	0.686	-0.218	–	–
in vitro model: cholesterol 0.05 mM, time point: terminal (~4-5 doublings, model-specific)	0.14	0.89	-0.273	4.08	–
in vitro model: cholesterol-high 0.2 mM, time point: constant (~7 days, model-specific)	0.0969	0.893	-0.233	0.365	–
in vitro model: cholesterol-high 0.2 mM, time point: terminal (~4-5 doublings, model-specific)	0.0817	1	-0.765	0.683	0.315
in vitro model: dormancy (butyrate + nitrate, low O2), time point: constant (~7 days, model-specific)	0.0523	0.9	0.189	-1.89	-2.36
in vitro model: dormancy (butyrate + nitrate, low O2), time point: terminal (~4-5 doublings, model-specific)	0.0408	0.987	-0.229	-1.99	-2.42
in vitro model: standard 7H9 glycerol, time point: constant = terminal	0.0756	0.939	-0.0363	-5.13	–
in vitro model: valerate, time point: constant (~7 days, model-specific)	0.0944	0.836	0.0599	-2.58	–
in vitro model: valerate, time point: terminal (~4-5 doublings, model-specific)	0.0892	0.927	0.0322	-2.64	-3

COc1nc2ccc(Br)cc2cc1[C@@H](c1ccccc1)[C@@](O)(CCN(C)C)c1cccc2ccccc12 [bedaquiline] + CC(C)/N=c1\cc2n(-c3ccc(Cl)cc3)c3ccccc3nc-2cc1Nc1ccc(Cl)cc1 [clofazimine] + CO[C@H]1/C=C/O[C@@]2(C)Oc3c(C)c(O)c4c(O)c(c(/C=N/N5CCN(C6CCCC6)CC5)c(O)c4c3C2=O)NC(=O)/C(C)=C\C=C\[C@H](C)[C@H](O)[C@@H](C)[C@@H](O)[C@@H](C)[C@H](OC(C)=O)[C@@H]1C [rifapentine]
Details	AUC25, [1]	Einf, [5]	GRinf, [2]	total FIC50, [4]	total FIC90, [3]
in vitro model: acidic pH 5.7, time point: constant (~7 days, model-specific)	0.0909	0.924	-0.309	0.793	–
in vitro model: acidic pH 5.7, time point: terminal (~4-5 doublings, model-specific)	0.0906	0.997	-0.284	0.66	0.55
in vitro model: intracellular J774, time point: constant = terminal	–	0.951	-0.199	–	-0.0198

Details	AUC25, [1]	Einf, [5]	GRinf, [2]	total FIC50, [4]	total FIC90, [3]
in vitro model: butyrate, time point: constant (~7 days, model-specific)	0.0667	0.948	-0.116	0.174	-0.813
in vitro model: butyrate, time point: terminal (~4-5 doublings, model-specific)	0.0586	0.983	-0.124	0.264	-0.221
in vitro model: cholesterol 0.05 mM, time point: constant (~7 days, model-specific)	0.0889	0.716	-0.179	-0.467	–
in vitro model: cholesterol 0.05 mM, time point: terminal (~4-5 doublings, model-specific)	0.085	0.926	-0.231	0.869	-0.165
in vitro model: cholesterol-high 0.2 mM, time point: constant (~7 days, model-specific)	0.0509	0.965	-0.378	-0.0878	-0.883
in vitro model: cholesterol-high 0.2 mM, time point: terminal (~4-5 doublings, model-specific)	0.0654	1	-0.595	0.507	-0.0793
in vitro model: dormancy (butyrate + nitrate, low O2), time point: constant (~7 days, model-specific)	0.0857	0.937	0.218	-0.0609	-0.282
in vitro model: dormancy (butyrate + nitrate, low O2), time point: terminal (~4-5 doublings, model-specific)	0.0766	0.997	-0.206	-0.242	-0.206
in vitro model: standard 7H9 glycerol, time point: constant = terminal	0.079	0.959	-0.0819	-0.0863	-0.842
in vitro model: valerate, time point: constant (~7 days, model-specific)	0.0956	0.895	-0.0953	0.292	–
in vitro model: valerate, time point: terminal (~4-5 doublings, model-specific)	0.0686	0.95	-0.0333	0.461	0.966

CC(C)/N=c1\cc2n(-c3ccc(Cl)cc3)c3ccccc3nc-2cc1Nc1ccc(Cl)cc1 [clofazimine] + CO[C@H]1/C=C/O[C@@]2(C)Oc3c(C)c(O)c4c(O)c(c(/C=N/N5CCN(C6CCCC6)CC5)c(O)c4c3C2=O)NC(=O)/C(C)=C\C=C\[C@H](C)[C@H](O)[C@@H](C)[C@@H](O)[C@@H](C)[C@H](OC(C)=O)[C@@H]1C [rifapentine] + CO[C@H]1/C=C/O[C@@]2(C)Oc3c(C)c(O)c4c(O)c(c(/C=N/N5CCN(C)CC5)c(O)c4c3C2=O)NC(=O)/C(C)=C\C=C\[C@H](C)[C@H](O)[C@@H](C)[C@@H](O)[C@@H](C)[C@H](OC(C)=O)[C@@H]1C [rifampicin]
Details	AUC25, [1]	Einf, [5]	GRinf, [2]	total FIC50, [4]	total FIC90, [3]
in vitro model: acidic pH 5.7, time point: constant (~7 days, model-specific)	0.0846	0.855	-0.0603	0.102	–
in vitro model: acidic pH 5.7, time point: terminal (~4-5 doublings, model-specific)	0.076	0.975	-0.1	0.133	-0.159
in vitro model: intracellular J774, time point: constant = terminal	–	0.956	-0.293	–	0.0463

Details	AUC25, [1]	Einf, [5]	GRinf, [2]	total FIC50, [4]	total FIC90, [3]
in vitro model: butyrate, time point: constant (~7 days, model-specific)	0.115	0.935	-0.0887	0.282	0.128
in vitro model: butyrate, time point: terminal (~4-5 doublings, model-specific)	0.0924	0.967	-0.0699	0.19	0.285
in vitro model: cholesterol 0.05 mM, time point: constant (~7 days, model-specific)	0.13	0.619	-0.094	0.554	–
in vitro model: cholesterol 0.05 mM, time point: terminal (~4-5 doublings, model-specific)	0.098	0.865	0.0942	1.05	0.206
in vitro model: cholesterol-high 0.2 mM, time point: constant (~7 days, model-specific)	0.105	0.887	-0.333	0.692	–
in vitro model: cholesterol-high 0.2 mM, time point: terminal (~4-5 doublings, model-specific)	0.0914	0.999	-0.983	0.952	0.73
in vitro model: dormancy (butyrate + nitrate, low O2), time point: constant (~7 days, model-specific)	0.0771	0.965	0.0628	0.158	-0.937
in vitro model: dormancy (butyrate + nitrate, low O2), time point: terminal (~4-5 doublings, model-specific)	0.067	0.994	-0.464	-0.183	0.154
in vitro model: standard 7H9 glycerol, time point: constant = terminal	0.0923	0.907	0.0923	0.00896	1.54
in vitro model: valerate, time point: constant (~7 days, model-specific)	0.0792	0.861	0.00522	0.944	–
in vitro model: valerate, time point: terminal (~4-5 doublings, model-specific)	0.0548	0.925	0.043	0.559	0.577
